What was measured:
[1] = biological target: T1, Histamine H4 receptor (Homo sapiens, UniProt Q9H3N8); assay: Intrinsic activity at human histamine H4 receptor expressed in human SH-SY5Y cell membranes by [35S]GTPgammaS binding assay; format: functional
[2] = biological target: T1, Histamine H4 receptor; assay: Antagonist activity at human histamine H4 receptor expressed in human SH-SY5Y cell membranes assessed as inhibition of Imetit-induced [35S]GTPgammaS binding; format: functional
[3] = tested on: HEK293; assay: Selectivity ratio of Ki for human H3 receptor expressed in HEK293 cell membranes to Kb for human histamine H4 receptor expressed in human SH-SY5Y cell membranes; format: cell-based
[4] = biological target: T2, Histamine H3 receptor (Homo sapiens, UniProt Q9Y5N1); assay: Displacement of [125I]iodoproxyfan from human H3 receptor expressed in HEK293 cell membranes after 1 hr
[5] = biological target: T2, Histamine H3 receptor; assay: Antagonist activity at human histamine H3 receptor
[6] = biological target: T1, Histamine H4 receptor; assay: Binding affinity to histamine H4 receptor (unknown origin)
[7] = biological target: T2, Histamine H3 receptor; assay: Binding affinity to histamine H3 receptor (unknown origin)

T2 sequence (Q9Y5N1 whole entry): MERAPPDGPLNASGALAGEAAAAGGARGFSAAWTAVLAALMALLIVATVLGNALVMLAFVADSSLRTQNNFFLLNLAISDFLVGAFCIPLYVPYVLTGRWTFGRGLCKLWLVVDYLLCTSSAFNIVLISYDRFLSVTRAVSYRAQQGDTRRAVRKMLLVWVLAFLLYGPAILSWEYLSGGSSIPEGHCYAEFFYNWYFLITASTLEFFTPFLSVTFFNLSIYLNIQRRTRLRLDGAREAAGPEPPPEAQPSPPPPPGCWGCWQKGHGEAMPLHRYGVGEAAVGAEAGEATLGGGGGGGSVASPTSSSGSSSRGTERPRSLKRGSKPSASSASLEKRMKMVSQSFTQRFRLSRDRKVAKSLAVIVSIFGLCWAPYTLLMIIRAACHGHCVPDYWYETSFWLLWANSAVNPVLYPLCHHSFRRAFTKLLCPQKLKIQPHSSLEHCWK

Row | Intrinsic activity [1] | Kb [2] [nM] | Structure (SMILES) | also measured
1 | 0 | > 10000 | Cn1cnc(CCCOC(c2ccccc2)c2nc3ccccc3s2)c1 (configuration not stated) | –
2 | 0 | 1.1 | c1ccc(C(OCCCc2c[nH]cn2)c2nc3ccccc3s2)cc1 (configuration not stated) | Selectivity ratio [3]: 31; Ki [4]: 34 nM
3 | 0 | 1.6 | Cc1[nH]cnc1CCCOC(c1ccccc1)c1nc2ccccc2s1 (configuration not stated) | –
4 | 0 | > 10000 | c1ccc(C(OCCCn2ccnc2)c2nc3ccccc3s2)cc1 (configuration not stated) | –
5 | 0 | > 10000 | c1ccc(C(OCCCCn2ccnc2)c2nc3ccccc3s2)cc1 (configuration not stated) | –
6 | 0 | 3.7 | c1ccc(C(OCCc2c[nH]cn2)c2nc3ccccc3s2)cc1 (configuration not stated) | –
7 | 0 | > 10000 | Cn1cncc1CCCOC(c1ccccc1)c1nc2ccccc2s1 (configuration not stated) | –
8 | 0 | > 10000 | Cc1nc(CCCOC(c2ccccc2)c2nc3ccccc3s2)c[nH]1 (configuration not stated) | –

Second part, the molecule before the results:

Row | Structure (SMILES) | Intrinsic activity [1] | Kb [2] [nM] | also measured
9 | c1ccc(-c2ccc(C(OCCCc3c[nH]cn3)c3ccccc3)cc2)cc1 (configuration not stated) | 0 | 17 | –
10 | c1ccc(C(OCCCc2c[nH]cn2)c2cccnc2)cc1 (configuration not stated) | 0 | 32 | –
11 | c1ccc(C(OCCCc2c[nH]cn2)c2ccccc2)cc1 | 0 | 19 | Ki [5]: 17 nM; Selectivity ratio [3]: 0.9; Ki [4]: 17 nM
12 | c1ccc(C(OCCn2ccnc2)c2nc3ccccc3s2)cc1 (configuration not stated) | 0 | > 10000 | –
13 | c1ccc(C(OCCCc2c[nH]cn2)c2cncnc2)cc1 (configuration not stated) | 0 | 29 | –
14 | Cn1cnc(CCN)c1 [N-METHYLHISTAMINE] | – | – | Ki [6]: 11000 nM; Ki [7]: 20000 nM
15 | c1ccc(C(OCc2c[nH]cn2)c2nc3ccccc3s2)cc1 (configuration not stated) | 0 | 399 | –
16 | c1ccc(C(OCCCc2c[nH]cn2)c2ccc3ccccc3c2)cc1 (configuration not stated) | 0 | 100 | –

— ChEMBL document CHEMBL3862009 (Bioorg Med Chem Lett, 2016)
